Data as given in PMC5310151 (Saudi Pharmaceutical Journal : SPJ, 2016).

What was measured:
PPARα = target: T1, PPARα (Mus musculus, UniProt P23204); test: PPRE luciferase reporter assay in HepG2 cells transfected with PPARα; assay type: cell-based; settings: HepG2, read-out: Fold induction / PPAR alpha / 50 μg/ml
T1 sequence (P23204 1-468): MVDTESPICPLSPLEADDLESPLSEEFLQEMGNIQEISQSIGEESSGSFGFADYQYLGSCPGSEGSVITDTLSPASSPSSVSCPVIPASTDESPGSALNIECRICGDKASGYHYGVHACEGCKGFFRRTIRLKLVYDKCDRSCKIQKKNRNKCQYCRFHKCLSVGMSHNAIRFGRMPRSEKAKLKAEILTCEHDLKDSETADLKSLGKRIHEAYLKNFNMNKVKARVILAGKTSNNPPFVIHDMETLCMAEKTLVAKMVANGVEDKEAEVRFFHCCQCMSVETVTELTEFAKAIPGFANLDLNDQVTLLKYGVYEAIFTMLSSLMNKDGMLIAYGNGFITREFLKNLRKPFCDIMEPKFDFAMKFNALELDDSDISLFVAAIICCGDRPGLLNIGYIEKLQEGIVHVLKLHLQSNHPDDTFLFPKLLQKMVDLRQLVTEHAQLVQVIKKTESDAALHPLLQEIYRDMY

PPARγ = target: T2, PPARγ (Rattus norvegicus, UniProt O88275); test: PPRE luciferase reporter assay in HepG2 cells transfected with PPARγ; assay type: cell-based; settings: HepG2, read-out: Fold induction / PPAR gamma / 50 μg/ml
T2 sequence (O88275 1-505): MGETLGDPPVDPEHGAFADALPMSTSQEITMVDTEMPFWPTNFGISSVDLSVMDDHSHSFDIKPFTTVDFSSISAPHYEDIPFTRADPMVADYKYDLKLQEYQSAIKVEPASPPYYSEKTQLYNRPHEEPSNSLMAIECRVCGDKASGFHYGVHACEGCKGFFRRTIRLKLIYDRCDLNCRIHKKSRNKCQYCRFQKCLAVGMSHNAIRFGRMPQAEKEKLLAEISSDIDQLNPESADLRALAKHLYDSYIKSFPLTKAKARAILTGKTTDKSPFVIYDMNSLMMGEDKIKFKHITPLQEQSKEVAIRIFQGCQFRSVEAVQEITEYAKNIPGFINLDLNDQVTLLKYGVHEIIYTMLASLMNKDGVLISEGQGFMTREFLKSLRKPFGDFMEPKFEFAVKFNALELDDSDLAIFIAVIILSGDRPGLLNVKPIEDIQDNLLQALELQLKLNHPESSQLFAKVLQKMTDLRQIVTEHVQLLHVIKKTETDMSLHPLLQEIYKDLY

Row | fold induction (PPARα) | fold induction at 10 µM (PPARγ) | Compound
1 | 2.2 ± 0.21 | – | CC(C)(Oc1ccc(C2CC2(Cl)Cl)cc1)C(=O)O (centres unmarked) [Ciprofibrate]
2 | – | 4.33 ± 0.54 | CN(CCOc1ccc(CC2SC(=O)NC2=O)cc1)c1ccccn1 (centres unmarked) [Rosiglitazone]
